Data taken from patent publication US7094758B2, “Apoptotic compounds” (Board of Regents, The University of Texas System, priority 2000, dated 2006).

How the values were obtained:
Wap-ras tumors = assay: In vivo therapy in the WAP-RAS transgenic model; settings: Wap-ras transgenic mice with well developed tumors; peptoid 20 mpk po, paclitaxel 5 mpk ip
Protocol: Peptoid and Paclitaxel combination efficacy is also evaluated in the Wap-ras transgenic model.
Peptoid (20 mpk/dosing po) was dissolved in 20% hydroxyl-propyl-betacyclodexatrin (Vehicle I). 0.2 ml of peptoid solution is the oral dosing volume. Paclitaxel (5 mpk/dosing ip) was dissolved in a diluted ethanol/cremophor EL solution (vehicle II) and the i.p. dosing volume for paclitaxel was 0.1 ml.
The mice are weighed, randomized, and ear-marked on Day 0. Peptoid treatment and Vehicle I treatment began on Day 1 and continued every 12 hours until Day 21. Paclitaxel and Vehicle II treatments are started on Day 4 and continued daily on Day 5, 6, and 7.

[1] = biological target: T1, second BIR (baculoviral IAP repeat) motif of XIAP (Homo sapiens, UniProt P98170); assay: In vitro IAP (BIR) binding/interaction assay, GST-mediated pull-down
T1 construct: recombinant IAP fragment (second BIR (baculoviral IAP repeat) motif of XIAP)
Protocol: Interaction between AV peptoids and IAPs was examined by GST-mediated pull-down assays. Approximately 0.4 mg of a recombinant IAP fragment (second BIR (baculoviral IAP repeat) motif of XIAP) was bound to […] of glutathione resin as a GST-fusion protein and incubated with 0.5 mg of radiolabeled AV peptoids at room temperature. After extensive washing with an assay buffer containing 25 mM Tris, pH 8.0, 150 mM NaCl, and 2 mM dithiothreitol (DTT), the complex was eluted with 5 mM reduced glutathione and visualized by SDS-PAGE with Coomassie staining.
Smac stimulates activation of procaspase-3 by relieving the IAP inhibition^20, 21. All members of the IAP family contain at least one BIR (baculoviral IAP repeat) motif and many contain three^9.

procaspase-3 = assay: Hela cell extracts: radiolabeled procaspase-3 activation assay; type: biochemical; settings: S-100 extracts of HeLa cells, 35S-labeled caspase-3; AV peptoids (50 nM), Smac peptides 30–1000 mM; 30° C., 1 hr
Protocol: […] S-100 extracts of HeLa cells were incubated alone (Control), or with AV peptoids (50 nM) nM, or with […] of N-terminal Smac peptides in different lengths. The reactions were carried out with the addition of 1 mM DATP, 1 mM additional MgCl2, 0.2 mg/ml horse heart cytochrome c, and […] of in vitro translated, ^35S-labeled caspase-3 in a final volume of […]. The reaction mixtures were incubated at 30° C. for 1 hr followed by electrophoresis on a 15% PAGE gel. The gel was subsequently transferred onto a nitrocellulose filter and exposed to a phosphoimaging cassette.

T1 sequence (P98170 124-240 limits assumed): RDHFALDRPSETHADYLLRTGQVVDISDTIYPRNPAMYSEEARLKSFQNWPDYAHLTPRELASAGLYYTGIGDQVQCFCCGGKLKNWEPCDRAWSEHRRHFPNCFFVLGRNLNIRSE

## CC(=O)O[C@H]1C(=O)[C@@]2(C)[C@H]([C@H](OC(=O)c3ccccc3)[C@]3(O)C[C@H](OC(=O)[C@H](O)[C@@H](NC(=O)c4ccccc4)c4ccccc4)C(C)=C1C3(C)C)[C@]1(OC(C)=O)CO[C@@H]1C[C@@H]2O [Paclitaxel]
Wap-ras tumors
  tumor response to treatment, single agent: do not respond

## NH2-KQAIPVA-COOH (H-KQAIPVA-OH) [Smac-7R]
[1]; Table 4, GST pull-down with radiolabeled AV peptoid, grades 0, ++, +++, key not given
  IAP Binding: 0
procaspase-3
  activation of procaspase-3: did not

B1: Smac: Second mitochondria-derived activator of caspases (DIABLO); mature form contains 184 amino acids (protein, UniProt Q9NR28 22-239, looked up)
Diablo IAP-binding …: LCVPVVANFKKRCFSELIRPWHKTVTIGFGVTLCAVPIAQKSEPHSLSSEALMRRAVSLVTDSTSTFLSQTTYALIEAITEYTKAVYTLTSLYRQYTSLLGKMNSEEEDEVWQVIIGARAEMTSKHQEYLKLETTWMTAVGLSEMAAEAAYQTGADQASITARNHIQLVKLQVEEVHQLSRKAETKLAEAQIEELRQKTQEEGEERAESEQEAYLRED
[1]; second or third BIR domain of XIAP
  specific binding/interaction with IAP (BIR domain of XIAP): specifically interact
